Laboratory results as given in US4271163A, “Novel 3,4-diaza-bicyclo[4.1.0]hept-2-en-5-ones, their preparation, and therapeutic agents containing these compounds” (BASF Aktiengesellschaft, priority 1978, dated 1981).
Converted amounts (≈) assume the structure as drawn. Like-named read-outs stand apart in the source and are kept apart here.

Legend:
narcotized rats = test: Anti-hypertensive effect on narcotized rats; format: in vivo, rat (male Sprague-Dawley); conditions: rats under urethane narcosis, intraperitoneal; for ED (20%): Rattus norvegicus, ip, dose which lowers the blood pressure by 20%, read-out: Reduction in blood pressure, ED 20%; for Reduction in blood pressure, R.A. (relative activity): dihydralazine = 1.00
Method: 3. Anti-hypertensive effect on narcotized rats.
To test the anti-hypertensive effect, the substances are administered intraperitoneally to groups of 3-5 male Sprague-Dawley rats weighing 240-280 g, under urethane narcosis ([…] given intraperitoneally).
The measurement of the blood pressure in the carotid artery is carried out by means of Statham transducers. The ED 20% is determined as the dose which lowers the mean carotid blood pressure by 20%.
(§1) The effective doses or effective concentrations were calculated from the linear relationships between the logarithm of the dose or concentration and the logarithm of the effect, by means of regression analysis.
(§2) Acetylsalicylic acid was used as the reference substance for the inhibition of thrombocyte aggregation and dihydralazine for the anti-hypertensive effect.

human thrombocytes = test: Inhibition of the collagen-induced aggregation of human thrombocytes in vitro; format: cell-based; conditions: for EC50: 10 min, read-out: Inhibition of collagen-induced thrombocyte aggregation in vitro, EC 50%; for Inhibition of aggregation, R.A. (relative activity): acetylsalicylic acid = 1.00
Method: 1. Inhibition of the collagen-induced aggregation of human thrombocytes in vitro.
(§3) Thrombocyte-rich plasma is obtained by centrifuging venous citrate blood (300 g, 10 minutes duration at 4° C.). The photometric measurement of the thrombocyte aggregation is carried out with addition of MgCl2 (final concentration 10 millimoles/l) and of collagen Stago (final concentration 0.02 mg/ml) in a Born Mk 3 aggregometer. The maximum extinction change/sec is used as a measure of the aggregation.
The aggregation-inhibiting activity of the substances is tested after an incubation time of 10 minutes.
The EC 50% is taken to be the concentration causing 50% inhibition of aggregation.
as §1, §2

rat thrombocytes = test: Inhibition of the collagen-induced aggregation of rat thrombocytes ex vivo; format: in vivo, rat (male Sprague-Dawley)
Method: as §3
2. Inhibition of the collagen-induced aggregation of rat thrombocytes ex vivo.
The substances are administered orally to groups of 10-15 male Sprague-Dawley rat weighing 200-250 g. 1-4 hours after administration, blood is taken under ether narcosis and thrombocyte-rich plasma is obtained by centrifuging. The aggregation after addition of collagen is measured as indicated above. The ED 33% is determined as the dose which inhibits the collagen-induced thrombocyte aggregation by 33%.
as §1, §2

[1] = tested on: spontaneously hypertonic rats; test: Anti-hypertensive effect on spontaneously hypertonic rats; format: in vivo, rat (male spontaneously hypertonic Okamoto); conditions: oral administration
Method: 4. Anti-hypertensive effect on spontaneously hypertonic rats.
The substances are administered orally to groups of 4-8 male spontaneously hypertonic Okamoto rats weighing 270-340 g. Before, and 2 hours after, the administration, the systolic blood pressure is measured non-surgically by means of piezo-electric crystal sensors.
The ED 20% is determined as the dose which lowers the systolic pressure by 20%, taking into account the values found with untreated control animals.
as §1, §2

[2] = human thrombocytes in vitro, concentration which inhibits the collagen-induced aggregation by 50%, 10 minutes incubation

Row | Compound | ED (20%) (narcotized rats) | Reduction in blood pressure, R.A. (relative activity) (narcotized rats) | EC50 (human thrombocytes; [2]) | Inhibition of aggregation, R.A. (relative activity) (human thrombocytes; human thrombocytes in vitro) | EC50 (human thrombocytes; Homo sapiens) | ED (33%) (rat thrombocytes; Rattus norvegicus, po, read-out: Inhibition of thrombocyte aggregation, ED 33%) | Inhibition of thrombocyte aggregation, R.A. (relative activity) (rat thrombocytes; rats, oral administration, acetylsalicylic acid = 1.00) | ED (20%) ([1]; Rattus norvegicus, 2 h, dose which lowers the blood pressure by 20% compared to the control group) | Anti-hypertensive effect, R.A. ([1]; dihydralazine = 1.00)
1 | C=CC(=O)Nc1ccc(C2=NNC(=O)C3CC23)cc1 (stereo not shown) [Example 14, 2-(p-acryloylaminophenyl)-3,4-diaza-bicyclo[4.1.0]hept-2-en-5-one] | 0.298 mg/kg | 1.13 | 0.38 µg/mL (≈ 1.49 µM) | 1310 | – | – | – | – | –
2 | CC(=O)Oc1ccccc1C(=O)O [Acetylsalicylic acid, reference compound] | – | – | – | – | 494 µg/mL (≈ 2740 µM) | 134 mg/kg | 1.00 | – | –
3 | C/C=C/C(=O)Nc1ccc(C2=NNC(=O)C3CC23)cc1 (stereo not shown) [Example 29, 2-(p-crotonoylaminophenyl)-3,4-diaza-bicyclo[4.1.0]-hept-2-en-5-one] | 1.71 mg/kg | 0.20 | 2.12 µg/mL (≈ 7.87 µM) | 233 | – | – | – | – | –
4 | CCC(C)C(=O)Nc1ccc(C2=NNC(=O)C3CC23)cc1 (stereo not shown) [Example 18, 2-[p-(2-methylbutyrylamino)-phenyl]-3,4-diaza-bicyclo[4.1.0]hept-2-en-5-one] | 0.9 mg/kg | 0.37 | 3.99 µg/mL (≈ 14 µM) | 124 | – | – | – | – | –
5 | O=C(Nc1ccc(C2=NNC(=O)C3CC23)cc1)C1CCCCC1 (stereo not shown) [Example 28, 2-(p-cyclohexylcarbonylaminophenyl)-3,4-diaza-bicyclo[4.1.0]-hept-2-en-5-one] | 0.415 mg/kg | 0.81 | 5.09 µg/mL (≈ 16.3 µM) | 97 | – | – | – | – | –
6 | NNc1nnc(NN)c2ccccc12 [Dihydralazine, reference compound] | 0.337 mg/kg | 1.0 | – | – | – | – | – | 6.85 mg/kg | 1.00
7 | CCCC(=O)Nc1ccc(C2=NNC(=O)C3CC23)cc1 (stereo not shown) [Example 15, 2-(p-butyrylaminophenyl)-3,4-diaza-bicyclo[4.1.0]hept-2-en-5-one] | 1.88 mg/kg | 0.18 | 1.87 µg/mL (≈ 6.89 µM) | 264 | – | – | – | – | –
8 | CC1(C(=O)Nc2ccc(C3=NNC(=O)C4CC34)cc2)CC1(Cl)Cl (stereo not shown) [Example 26, 2-[p-(2,2-dichloro-1-methylcyclopropylcarbonylamino)-phenyl]-3,4-diaza-bicyclo[4.1.0]hept-2-en-5-one] | 0.786 mg/kg | 0.43 | 1.91 µg/mL (≈ 5.42 µM) | 259 | – | – | – | – | –
9 | O=C(CCCCl)Nc1ccc(C2=NNC(=O)C3CC23)cc1 (stereo not shown) [Example 21, 2-[p-(4-chlorobutyrylamino)-phenyl]-3,4-diaza-bicyclo[4.1.0]hept-2-en-5-one] | 6.81 mg/kg | 0.05 | 2.27 µg/mL (≈ 7.42 µM) | 218 | – | – | – | – | –
10 | O=CNc1ccc(C2=NNC(=O)C3CC23)cc1 (stereo not shown) [Example 10, 2-(p-formylaminophenyl)-3,4-diaza-bicyclo[4.1.0]hept-2-en-5-one] | 0.253 mg/kg | 1.33 | 6.81 µg/mL (≈ 29.7 µM) | 73 | – | – | – | – | –
11 | CC(C)C(=O)Nc1ccc(C2=NNC(=O)C3CC23)cc1 (stereo not shown) [Example 16, 2-(p-isobutyrylaminophenyl)-3,4-diaza-bicyclo[4.1.0]hept-2-en-5-one] | 0.402 mg/kg | 0.84 | 4.88 µg/mL (≈ 18 µM) | 101 | – | – | – | – | –
